Like-named read-outs stand apart in the source and are kept apart here.
How the values were obtained:
[1] = test system: TSLP-evoked TARC release in human peripheral blood mononuclear cells; assay: Inhibition of TSLP-evoked TARC release in human peripheral blood mononuclear cells; format: cell-based; conditions: read-out: pIC50 ± st. dev., inhibition of TSLP-evoked TARC release (converted)
Description: Assay 4: Inhibition of TSLP-Evoked TARC Release in Human Peripheral Blood Mononuclear Cells
Thymic stromal lymphopoietin (TSLP) and thymus and activation-regulated chemokine (TARC) are overexpressed in asthmatic airways, and correlate with disease severity. In the lungs, TSLP may be released by bronchial epithelial cells in response to allergens and viral infections. TSLP signals through an IL-7Rα/TSLPR heterodimer found in a broad range of tissues and cell types, including epithelial cells, endothelial cells, neutrophils, macrophages, and mast cells. The binding of TSLP to its receptor induces a conformational change that activates JAK1 and JAK2 to phosphorylate various transcription factors, including STAT3 and STAT5. In immune cells, this triggers a cascade of intracellular events that result in cell proliferation, anti-apoptosis, dendritic cell migration, and production of Th2 cytokines and chemokines. In peripheral blood mononuclear cells (PBMC), TSLP has a proinflammatory effect by activating myeloid dendritic cells to attract and stimulate T cells, a process mediated by the chemoattractant TARC.
The potencies of the test compounds were measured for inhibition of TARC release.
PBMC aliquots (previously isolated from whole blood and frozen in aliquots at −80° C.) from 3 to 5 donors were thawed at 37° C. and added dropwise to 40 mL pre-warmed, sterile-filtered, complete RPMI media in 50 mL Falcon tubes. Cells were pelleted and resuspended in complete media at 2.24×10^6 cells/mL. […] Cells were allowed to rest for 1 hour at 37° C. with 5% CO2.
Compounds were received as 10 mM stock solutions in DMSO. 3.7-fold serial dilutions were performed to generate 9 concentrations of test compound in DMSO at 300× the final assay test concentration. […] 95 μL of 0.2% DMSO in complete media was added to the untreated control wells. Cells were pre-treated with compound for 1 hour at 37° C. with 5% CO2 prior to stimulation.
Immediately prior to use, an aliquot was thawed and prepared at 20× the final assay concentration in complete media. 10 μL of 20×TSLP was added to each well of PBMC, for a final assay concentration of 10 ng/mL. 10 μL of complete media was added to the unstimulated control wells. Cells were stimulated in the presence of compound for 48 hours at 37° C. with 5% CO2.
Following stimulation, the cell culture supernatants were harvested and TARC levels were detected by enzyme-linked immunosorbent assay (ELISA), using Human CCL17/TARC Quantikine ELISA Kit (R&D Systems # DDN00) according to the manufacturer's instructions.
For dose response analysis, the log [test compound (M)] was plotted versus the percent response values for each donor, and IC50 values were determined using a nonlinear regression analysis with GraphPad Prism Software using the 4-parameter sigmoidal dose-response algorithm with variable slope. Data are expressed as mean pIC50 (negative decadic logarithm IC50) values calculated from pIC50 values of individual donors and rounded to one decimal place.

JAK2 = JAK2 (Homo sapiens (Human), UniProt O60674); assay: Biochemical JAK kinase assay (LanthaScreen), JAK2
JAK2, sequence (O60674 whole entry): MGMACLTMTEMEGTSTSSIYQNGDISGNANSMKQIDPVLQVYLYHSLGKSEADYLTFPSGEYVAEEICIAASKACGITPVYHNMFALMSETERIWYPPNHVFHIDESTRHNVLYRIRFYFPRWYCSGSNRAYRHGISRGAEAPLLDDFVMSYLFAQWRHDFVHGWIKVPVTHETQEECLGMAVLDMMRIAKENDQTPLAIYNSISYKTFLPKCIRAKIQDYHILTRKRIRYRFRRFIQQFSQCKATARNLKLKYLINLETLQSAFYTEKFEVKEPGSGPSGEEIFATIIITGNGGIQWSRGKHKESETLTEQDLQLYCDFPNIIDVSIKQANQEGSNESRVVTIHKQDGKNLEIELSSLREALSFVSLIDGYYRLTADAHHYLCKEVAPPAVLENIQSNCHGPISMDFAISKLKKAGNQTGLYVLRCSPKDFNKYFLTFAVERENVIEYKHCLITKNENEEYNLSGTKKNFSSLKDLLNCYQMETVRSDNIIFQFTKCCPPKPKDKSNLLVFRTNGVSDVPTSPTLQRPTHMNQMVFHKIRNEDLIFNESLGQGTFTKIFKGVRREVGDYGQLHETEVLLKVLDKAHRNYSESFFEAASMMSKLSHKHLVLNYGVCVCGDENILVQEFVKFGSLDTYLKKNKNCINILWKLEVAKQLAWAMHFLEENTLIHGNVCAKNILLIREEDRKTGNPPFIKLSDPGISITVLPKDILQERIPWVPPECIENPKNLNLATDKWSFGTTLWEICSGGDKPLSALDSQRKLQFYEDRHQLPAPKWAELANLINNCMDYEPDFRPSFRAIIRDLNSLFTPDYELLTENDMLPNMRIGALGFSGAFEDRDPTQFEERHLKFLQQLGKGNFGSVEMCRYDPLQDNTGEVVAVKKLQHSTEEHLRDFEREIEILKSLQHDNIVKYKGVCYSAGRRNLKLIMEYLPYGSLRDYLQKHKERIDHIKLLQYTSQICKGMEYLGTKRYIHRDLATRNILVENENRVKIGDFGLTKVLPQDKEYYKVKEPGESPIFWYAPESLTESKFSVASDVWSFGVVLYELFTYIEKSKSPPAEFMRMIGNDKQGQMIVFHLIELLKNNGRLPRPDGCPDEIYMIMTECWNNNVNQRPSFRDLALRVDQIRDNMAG
Protocol: (§1) Assay 1: Biochemical JAK Kinase Assays
(§2) A panel of four LanthaScreen JAK biochemical assays (JAK1, 2, 3 and Tyk2) were carried in a common kinase reaction buffer (50 mM HEPES, pH 7.5, 0.01% Brij-35, 10 mM MgCl2, and 1 mM EGTA). Recombinant GST-tagged JAK enzymes and a GFP-tagged STAT1 peptide substrate were obtained from Life Technologies.
(§3) Serially diluted compounds were pre-incubated with each of the four JAK enzymes and the substrate in white 384-well microplates (Corning) at ambient temperature for 1 h. ATP was subsequently added to initiate the kinase reactions in 10 μL total volume, with 1% DMSO. […] Kinase reactions were allowed to proceed for 1 hour at ambient temperature before a 10 μL preparation of EDTA (10 mM final concentration) and Tb-anti-pSTAT1 (pTyr701) antibody (Life Technologies, 2 nM final concentration) in TR-FRET dilution buffer (Life Technologies) was added. The plates were allowed to incubate at ambient temperature for 1 h before being read on the EnVision reader (Perkin Elmer). Emission ratio signals (520 nm/495 nm) were recorded and utilized to calculate the percent inhibition values based on DMSO and background controls.
(§4) For dose-response analysis, percent inhibition data were plotted vs. compound concentrations, and IC50 values were determined from a 4-parameter robust fit model with the Prism software (GraphPad Software). Results were expressed as pIC50 (negative logarithm of IC50) and subsequently converted to pKi (negative logarithm of dissociation constant, Ki) using the Cheng-Prusoff equation.

[2] = test system: IL-2 stimulated STAT5 phosphorylation in Tall-1 human T cell line; assay: Inhibition of IL-2 stimulated pSTAT5 in Tall-1 T cells; format: cell-based
Protocol: Assay 2: Inhibition of IL-2 Stimulated pSTAT5 in Tall-1 T Cells
The potency of test compounds for inhibition of interleukin-2 (IL-2) stimulated STAT5 phosphorylation was measured in the Tall-1 human T cell line (DSMZ) using AlphaLisa.
Phosphorylated STAT5 was measured via the AlphaLISA SureFire Ultra pSTAT5 (Tyr694/699) kit (PerkinElmer).
Compounds were serially diluted in DMSO and dispensed acoustically to empty wells. Assay media (phenol red-free DMEM (Life Technologies) supplemented with 10% FBS (ATCC)) was dispensed (4 μL/well) and plates shaken at 900 rpm for 10 mins. Cells were seeded at 45,000 cells/well in assay media (4 μL/well), and incubated at 37° C., 5% CO2 for 1 hour, followed by the addition of IL-2 (R&D Systems; final concentration 300 ng/mL) in pre-warmed assay media (4 μL) for 30 minutes. […] The lysate was shaken at 900 rpm for 10 minutes at room temperature (RT). Phosphorylated STAT5 was measured via the pSTAT5 AlphaLisa kit (PerkinElmer). Freshly prepared acceptor bead mixture was dispensed onto lysate (5 μL) under green filtered <100 lux light. Plates were shaken at 900 rpm for 2 mins, briefly spun down, and incubated for 2 hrs at RT in the dark. Donor beads were dispensed (5 μL) under green filtered <100 lux light. Plates were shaken at 900 rpm for 2 minutes, briefly spun down, and incubated overnight at RT in the dark. Luminescence was measured with excitation at 689 nm and emission at 570 nm using an EnVision plate reader (PerkinElmer) under green filtered <100 lux light.
To determine the inhibitory potency of test compounds in response to IL-2, the average emission intensity of beads bound to pSTAT5 was measured in a human T cell line. IC50 values were determined from analysis of the inhibition curves of signal intensity versus compound concentration. Data are expressed as pIC50 (negative decadic logarithm IC50) values (mean±standard deviation).

Tyk2 = Tyk2 (Homo sapiens (Human), UniProt P29597); assay: Biochemical JAK kinase assay (LanthaScreen), Tyk2; conditions: converted from pIC50 using Cheng-Prusoff; ATP 10 μM
Tyk2, sequence (P29597 whole entry): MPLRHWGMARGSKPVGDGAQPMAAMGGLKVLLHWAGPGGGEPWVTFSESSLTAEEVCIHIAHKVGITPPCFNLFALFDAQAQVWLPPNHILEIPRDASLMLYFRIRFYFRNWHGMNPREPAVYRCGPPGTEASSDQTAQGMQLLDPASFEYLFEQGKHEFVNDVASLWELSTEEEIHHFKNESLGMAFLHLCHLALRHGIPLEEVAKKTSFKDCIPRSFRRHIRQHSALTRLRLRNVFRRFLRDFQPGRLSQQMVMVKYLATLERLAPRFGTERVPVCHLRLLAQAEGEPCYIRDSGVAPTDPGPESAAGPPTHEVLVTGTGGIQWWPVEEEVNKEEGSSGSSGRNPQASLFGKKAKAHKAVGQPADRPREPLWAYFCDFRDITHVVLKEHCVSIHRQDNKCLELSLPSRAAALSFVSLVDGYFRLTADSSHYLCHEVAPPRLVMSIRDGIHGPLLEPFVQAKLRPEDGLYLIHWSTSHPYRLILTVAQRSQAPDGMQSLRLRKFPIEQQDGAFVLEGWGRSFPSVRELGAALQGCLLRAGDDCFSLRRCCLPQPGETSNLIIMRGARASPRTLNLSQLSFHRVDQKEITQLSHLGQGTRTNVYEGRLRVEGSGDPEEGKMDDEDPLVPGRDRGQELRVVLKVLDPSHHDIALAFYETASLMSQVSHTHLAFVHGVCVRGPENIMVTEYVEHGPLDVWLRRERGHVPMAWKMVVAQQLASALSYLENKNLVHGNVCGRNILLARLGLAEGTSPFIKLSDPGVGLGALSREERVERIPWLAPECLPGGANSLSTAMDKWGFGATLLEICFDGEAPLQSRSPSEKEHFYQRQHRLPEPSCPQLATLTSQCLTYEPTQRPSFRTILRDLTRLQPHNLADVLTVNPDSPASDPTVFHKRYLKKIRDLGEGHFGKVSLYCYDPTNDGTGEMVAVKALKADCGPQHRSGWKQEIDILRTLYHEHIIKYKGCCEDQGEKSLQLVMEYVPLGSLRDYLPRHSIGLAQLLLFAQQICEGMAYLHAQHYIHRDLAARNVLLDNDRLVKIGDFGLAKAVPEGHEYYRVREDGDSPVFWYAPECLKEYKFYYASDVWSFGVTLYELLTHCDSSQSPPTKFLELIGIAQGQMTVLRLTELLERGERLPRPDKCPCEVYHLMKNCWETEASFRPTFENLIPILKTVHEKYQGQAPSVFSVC
Protocol: as §1, §2, §3, §4

Structure (SMILES) | IC50 ([1]; Homo sapiens, PBMC, 48 h) [nM] | Ki (JAK2) [nM] | IC50 ([2]; TALL-1, read-out: Tall-1 pIC50 (converted)) [nM] | IC50 ([1]; human PBMC, 3 to 5 donors, TSLP 10 ng/mL, 48 hours, ELISA) [nM] | JAK2 pKi (JAK2; converted from pIC50 using Cheng-Prusoff, ATP 3 μM) | IC50 ([2]; IL-2 300 ng/mL, pSTAT5 AlphaLisa, Tall-1 cells, read-out: Tall-1 pIC50 (converted)) [nM] | Tyk2 pKi (Tyk2)
CCc1cc(O)ccc1-c1ccc2c(-c3nc4c([nH]3)CN(C)[C@H](C(=O)N3CCN(CCO)C[C@H]3C)C4)n[nH]c2c1 [Example 5, ((S)-2-(6-(2-ethyl-4-hydroxyphenyl)-1H-indazol-3-yl)-5-methyl-4,5,6,7-tetrahydro-3H-imidazo[4,5-c]pyridin-6-yl)((R)-4-(2-hydroxyethyl)-2-methylpiperazin-1-yl)methanone] | 31.6 | 0.0316 | 1.58 | – | – | – | –
CCc1cc(O)ccc1-c1ccc2c(-c3nc4c([nH]3)CN(C(C)C)[C@H](C(=O)N3CC(N(C)C)C3)C4)n[nH]c2c1 [Example 7, (S)-(3-(dimethylamino)azetidin-1-yl)(2-(6-(2-ethyl-4-hydroxyphenyl)-1H-indazol-3-yl)-5-isopropyl-4,5,6,7-tetrahydro-3H-imidazo[4,5-c]pyridin-6-yl)methan One] | – | – | – | 63.1 | 10.5 | 2.51 | 9.1

Source: US10844057B2, “Process for preparing JAK inhibitors and intermediates thereof” (priority 2018, dated 2020)
